Test results taken from PMC11671526, “β-caryophyllene sensitizes hepatocellular carcinoma cells to chemotherapeutics and inhibits cell malignancy through targeting MAPK signaling pathway” (Frontiers in Pharmacology, 2024).

Test system: HepG2 cells
Test: RNA-seq transcriptome analysis of differentially expressed genes
Assay type: cell-based, human
Conditions: BCP vs control HepG2, RNA-seq
Description: The quality and concentration of RNA were examined by MOPS RNA electrophoresis and Eppendorf BioSpectrometer. The transcriptome analysis was performed by BGI-Wuhan China. The RNA-seq dataset of this study is accessible in the Gene Expression Omnibus (GEO) with an access number of GSE276099. The sequence library for each sample was prepared using the BGISEQ-500 platform with a 50-bp single-end (SE50) format. […]2.2.1) was used to align the clean reads to the reference genome and alignment of the clean reads to the reference genes was carried out using Bowtie2 (v2.4.5) ([Langmead and Salzberg, 2012]; [Kim et al., 2015]). Gene expression levels were calculated by RSEM (v1.3.1) ([Li and Dewey, 2011]). Analysis of differential gene expression was performed using edgeR in the Bioconductor software package ([Robinson et al., 2010]). Using a standard protocol, the RNA samples were also examined by reverse transcription and quantitative polymerase chain reaction (RT-qPCR). In brief, for reverse transcription, total RNA (1 μg) and gDNA wiper Mix were incubated at 42°C for 2 min. The samples were immediately incubated with a master mix containing 10 pmol/μL of poly (dT) primers at 37°C for 15 min and 85°C for 5 s. To detect the expression of specific genes by qPCR analysis, gene-specific primers (shown in Supplementary Table S1) were mixed with the ChamQ Universal SYBER qPCR Master Mix and the reaction was conducted using the Roche Lightcycler 480. The GAPDH value was used to normalize the results of each gene. The RNA-seq data of BCP-treated HepG2 cells were screened for DEGs. Gene symbols were turned into Enterz ID using the org.Hs.eg.db Bio-conductor R package. The cluster profiler (v4.6.2) package was used to perform the Kyoto Encyclopedia of Genes and Genomes (KEGG) and Gene Ontology (GO) enrichment analyses ([Wu et al., 2021]). Following the Transcript per million (TPM) data of the dataset, the line chart, and heatmap were plotted using ggplot2 and pheatmap R packages, respectively.

Structure (SMILES): C=C1CC/C=C(\C)CC[C@@H]2[C@@H]1CC2(C)C [BCP, β-caryophyllene]
- ABCA4 change: Up
- ABCA4 logFC: 1.08
- ABHD16B change: Down
- ABHD16B logFC: -0.7624
- ACCS change: Up
- ACCS logFC: 0.7756
- ADAT3 change: Down
- ADAT3 logFC: -0.6489
- ADGRE1 change: Down
- ADGRE1 logFC: -1.049
- ADORA1 change: Down
- ADORA1 logFC: -0.951
- ADORA2A change: Down
- ADORA2A logFC: -0.7747
- ADRA2C change: Down
- ADRA2C logFC: -0.8257
- AGT change: Up
- AGT logFC: 0.6624
- AKR1C1 change: Down
- AKR1C1 logFC: -0.9841
- ALOX12B change: Down
- ALOX12B logFC: -0.7891
- ALOXE3 change: Down
- ALOXE3 logFC: -1.101
- ANK1 change: Down
- ANK1 logFC: -0.6258
- ANK2 change: Up
- ANK2 logFC: 0.6135
- ANKRD63 change: Down
- ANKRD63 logFC: -1.109
- ANO9 change: Up
- ANO9 logFC: 0.6598
- AOX1 change: Down
- AOX1 logFC: -0.7887
- ARHGAP25 change: Down
- ARHGAP25 logFC: -0.9496
- ARTN change: Down
- ARTN logFC: -0.6893
- B3GNT4 change: Down
- B3GNT4 logFC: -0.8549
- BEST1 change: Up
- BEST1 logFC: 0.7297
- BOC change: Down
- BOC logFC: -1.001
- BOLA2B change: Down
- BOLA2B logFC: -1.579
- BORCS8-MEF2B change: Up
- BORCS8-MEF2B logFC: 0.7383
- C4orf50 change: Down
- C4orf50 logFC: -0.84
- C7orf31 change: Up
- C7orf31 logFC: 0.8499
- C14orf132 change: Down
- C14orf132 logFC: -0.9885
- C15orf62 change: Down
- C15orf62 logFC: -0.8151
- CACNA1D change: Up
- CACNA1D logFC: 0.899
- CACNA1E change: Down
- CACNA1E logFC: -0.8241
- CAMK2N2 change: Down
- CAMK2N2 logFC: -0.8129
- CARMIL2 change: Down
- CARMIL2 logFC: -0.818
- CDC25C change: Up
- CDC25C logFC: 0.5857
- CENPE change: Up
- CENPE logFC: 0.6854
- CERS4 change: Down
- CERS4 logFC: -0.7861
- CHST6 change: Down
- CHST6 logFC: -0.6638
- CILP2 change: Down
- CILP2 logFC: -0.9152
- CLEC7A change: Down
- CLEC7A logFC: -1.627
- CLGN change: Up
- CLGN logFC: 0.5838
- COL9A2 change: Up
- COL9A2 logFC: 0.6974
- CPAMD8 change: Up
- CPAMD8 logFC: 0.9195
- CRYBG1 change: Down
- CRYBG1 logFC: -0.6404
- CSF1R change: Up
- CSF1R logFC: 1.132
- CTNNBIP1 change: Up
- CTNNBIP1 logFC: 0.608
- CYP24A1 change: Up
- CYP24A1 logFC: 0.7733
- CYP39A1 change: Down
- CYP39A1 logFC: -0.966
- D2HGDH change: Up
- D2HGDH logFC: 0.7244
- DEPTOR change: Down
- DEPTOR logFC: -0.8053
- DOK7 change: Up
- DOK7 logFC: 0.6123
- DPF1 change: Down
- DPF1 logFC: -0.7852
- DUSP18 change: Down
- DUSP18 logFC: -1.0326
- ELOVL6 change: Down
- ELOVL6 logFC: -0.6915
- EN2 change: Down
- EN2 logFC: -0.8276
- ENPP1 change: Up
- ENPP1 logFC: 0.6168
- EPHA7 change: Up
- EPHA7 logFC: 0.6078
- ERVV-2 change: Up
- ERVV-2 logFC: 0.6706
- FAAH2 change: Up
- FAAH2 logFC: 0.6861
- FAM72A change: Up
- FAM72A logFC: 0.7318
- FAM167B change: Down
